Assay results from patent US6620828B2, “Thiazole compounds and pharmaceutical compositions for inhibiting protein kinases and methods for their use” (Agouron Pharmaceuticals, Inc., priority 1999, dated 2003).

System: human umbilical vein endothelial cells (HUVEC)
Test: HUVEC proliferation assay
Type: cell-based
Settings: Homo sapiens, HUVEC, table following Table II (untitled), crude combinatorial library; for inhibition at 0.001 µM: 1 nM; for inhibition at 0.01 µM: 10 nM, read-out: % inhibition @ 10 nM
Procedure, shortened: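 Readout was MTT dye reduction (A595) after 72 h of stimulation with VEGF at 6 ng/ml final. Compound, in 0.1% DMSO final, was added 1 h before VEGF to HUVEC starved 24 h in 1% FBS. % inhibition was scaled between VEGF-alone and unstimulated wells; IC50 was fitted from triplicate dose curves.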

SMILES | inhibition at 0.001 µM [%] | inhibition at 0.01 µM [%]
COc1cc(Nc2nc(N)c(-c3nc(-c4cc(NC(=O)c5ccccc5)ccc4C)no3)s2)cc(OC)c1OC | 25 | 111
COc1cc(Nc2nc(N)c(-c3nc(-c4cc(NC(=O)C(C)C)ccc4C)no3)s2)cc(OC)c1OC | 6 | 1
COc1cc(Nc2nc(N)c(-c3nc(-c4cc(NC(=O)C(O)CC(C)C)ccc4C)no3)s2)cc(OC)c1OC (stereo not drawn) | 5 | 69
COc1cc(Nc2nc(N)c(-c3nc(-c4cc(NC(=O)c5ccc(=O)oc5)ccc4C)no3)s2)cc(OC)c1OC | 30 | 51
COc1cc(Nc2nc(N)c(-c3nc(-c4cc(NC(=O)c5cccc6[nH]ccc56)ccc4C)no3)s2)cc(OC)c1OC | 13 | 72
COc1cc(Nc2nc(N)c(-c3nc(-c4cc(NC(=O)C5=C[C@@H](O)[C@@H](O)[C@H](O)C5)ccc4C)no3)s2)cc(OC)c1OC | 4 | 6
COc1cc(Nc2nc(N)c(-c3nc(-c4cc(NC(=O)[C@H]5CC(=O)NC(=O)N5)ccc4C)no3)s2)cc(OC)c1OC | 25 | 2
COc1cc(Nc2nc(N)c(-c3nc(-c4cc(NC(=O)CCCN(C)C)ccc4C)no3)s2)cc(OC)c1OC | 5 | 16
COc1cc(Nc2nc(N)c(-c3nc(-c4cc(NC(=O)[C@H]5CCC(=O)N5)ccc4C)no3)s2)cc(OC)c1OC | -4 | 13
C=CCC(=O)Nc1ccc(C)c(-c2noc(-c3sc(Nc4cc(OC)c(OC)c(OC)c4)nc3N)n2)c1 | 35 | 72
COc1cc(Nc2nc(N)c(-c3nc(-c4cc(NC(=O)C5CCN(C(C)=O)CC5)ccc4C)no3)s2)cc(OC)c1OC | -4 | 16
COc1cc(Nc2nc(N)c(-c3nc(-c4cc(NC(=O)C5CCOC5)ccc4C)no3)s2)cc(OC)c1OC (stereo not drawn) | 16 | 6
COc1cccc(/C=C/C(=O)Nc2ccc(C)c(-c3noc(-c4sc(Nc5cc(OC)c(OC)c(OC)c5)nc4N)n3)c2)c1 | -5 | 40
COc1cc(Nc2nc(N)c(-c3nc(-c4cc(NC(=O)C(O)c5ccccc5)ccc4C)no3)s2)cc(OC)c1OC (stereo not drawn) | -1 | 40
COc1cc(Nc2nc(N)c(-c3nc(-c4cc(NC(=O)C(=O)Cc5ccccc5)ccc4C)no3)s2)cc(OC)c1OC | 23 | 21
COc1cc(Nc2nc(N)c(-c3nc(-c4cc(NC(=O)CSC(=S)N(C)C)ccc4C)no3)s2)cc(OC)c1OC | 6 | -7
COc1cc(Nc2nc(N)c(-c3nc(-c4cc(NC(=O)C5C(C=C(C)C)C5(C)C)ccc4C)no3)s2)cc(OC)c1OC (stereo not drawn) | 8 | -11
COc1cc(Nc2nc(N)c(-c3nc(-c4cc(NC(=O)[C@@]56C[C@@H]7C[C@@H]5CC7(C)C6)ccc4C)no3)s2)cc(OC)c1OC | 1 | 23
COc1cc(Nc2nc(N)c(-c3nc(-c4cc(NC(=O)Cc5cccnc5)ccc4C)no3)s2)cc(OC)c1OC | -4 | 21
COc1cc(Nc2nc(N)c(-c3nc(-c4cc(NC(=O)CC(C)(C)NC(C)=O)ccc4C)no3)s2)cc(OC)c1OC | 2 | -11
CCO/C(C)=C/C(=O)Nc1ccc(C)c(-c2noc(-c3sc(Nc4cc(OC)c(OC)c(OC)c4)nc3N)n2)c1 | 21 | 78

SMILES | inhibition at 0.001 µM [%] | inhibition at 0.01 µM [%]
COc1cc(Nc2nc(N)c(-c3nc(-c4cc(NC(=O)[C@H]5C[C@@H](C)[C@@H](C)[C@H]5C)ccc4C)no3)s2)cc(OC)c1OC | -21 | 5
C/C=C/C(=O)Nc1ccc(C)c(-c2noc(-c3sc(Nc4cc(OC)c(OC)c(OC)c4)nc3N)n2)c1 | 9 | 65
COc1cc(Nc2nc(N)c(-c3nc(-c4cc(NC(=O)C[C@H](C)c5ccccc5)ccc4C)no3)s2)cc(OC)c1OC | -30 | 24
COc1cc(Nc2nc(N)c(-c3nc(-c4cc(NC(=O)CC5=CCCCC5)ccc4C)no3)s2)cc(OC)c1OC | -12 | 43
COc1cc(Nc2nc(N)c(-c3nc(-c4cc(NC(=O)C(=O)C5=CCCCC5)ccc4C)no3)s2)cc(OC)c1OC | -36 | 11
COc1cc(Nc2nc(N)c(-c3nc(-c4cc(NC(=O)C5CNC(=O)N5)ccc4C)no3)s2)cc(OC)c1OC (stereo not drawn) | -43 | -7
COc1cc(Nc2nc(N)c(-c3nc(-c4cc(NC(=O)C5CC5C)ccc4C)no3)s2)cc(OC)c1OC (stereo not drawn) | 24 | 6
COc1cc(Nc2nc(N)c(-c3nc(-c4cc(NC(=O)c5cc(F)ccc5C)ccc4C)no3)s2)cc(OC)c1OC | 29 | 64
COc1cc(Nc2nc(N)c(-c3nc(-c4cc(NC(=O)C5CCSCN5C)ccc4C)no3)s2)cc(OC)c1OC (stereo not drawn) | 14 | 29
COc1cc(Nc2nc(N)c(-c3nc(-c4cc(NC(=O)[C@H]5CCC[C@H]5O)ccc4C)no3)s2)cc(OC)c1OC | 45 | 9
COc1cc(Nc2nc(N)c(-c3nc(-c4cc(NC(=O)C5CCC(=O)CC5)ccc4C)no3)s2)cc(OC)c1OC | 23 | -24
COc1cc(Nc2nc(N)c(-c3nc(-c4cc(NC(=O)c5ccccc5C(C)C)ccc4C)no3)s2)cc(OC)c1OC | 6 | 11
COc1cc(Nc2nc(N)c(-c3nc(-c4cc(NC(=O)[C@H](C)C(C)C)ccc4C)no3)s2)cc(OC)c1OC | -8 | -18
CCn1nc(C)cc1C(=O)Nc1ccc(C)c(-c2noc(-c3sc(Nc4cc(OC)c(OC)c(OC)c4)nc3N)n2)c1 | -4 | 44
COc1cc(Nc2nc(N)c(-c3nc(-c4cc(NC(=O)[C@H](O)C(C)(C)C)ccc4C)no3)s2)cc(OC)c1OC | -34 | -11
COc1cc(Nc2nc(N)c(-c3nc(-c4cc(NC(=O)C5CC(=O)N(C)C5)ccc4C)no3)s2)cc(OC)c1OC (stereo not drawn) | 16 | -18
COc1cc(Nc2nc(N)c(-c3nc(-c4cc(NC(=O)[C@@H](OC)c5ccccc5)ccc4C)no3)s2)cc(OC)c1OC | -11 | 63
COc1ccccc1/C=C/C(=O)Nc1ccc(C)c(-c2noc(-c3sc(Nc4cc(OC)c(OC)c(OC)c4)nc3N)n2)c1 | 13 | 31
COc1cc(Nc2nc(N)c(-c3nc(-c4cc(NC(=O)C5CC6C=CCC(C6)C5)ccc4C)no3)s2)cc(OC)c1OC (stereo not drawn) | 18 | 18
COc1cc(Nc2nc(N)c(-c3nc(-c4cc(NC(=O)C5CCC6CCC(O)CC5C6)ccc4C)no3)s2)cc(OC)c1OC (stereo not drawn) | 10 | 11
COc1cc(Nc2nc(N)c(-c3nc(-c4cc(NC(=O)C5CC[C@H]6CC(O)CC[C@@H](C5)C6)ccc4C)no3)s2)cc(OC)c1OC (stereo partly drawn) | 7 | 20
